For the assay, the system named is murine model of NASH. Nature of the assay: High fat high sugar diet-induced murine model of NASH. Type of assay: in vivo, mouse. As to conditions: for fasting glucose / glucose tolerance: week 12; for plasma AST: week 13. How it is done:
As TET3-positive macrophages were also detected in human NASH (FIG. 24B), studies were performed to investigate whether depleting these macrophages would reduce NASH progression. Despite the high efficiency (up to 90%) of the LysM-cre strain in manipulating macrophages originated from myeloid progenitors including those in the peritoneal cavity, peripheral blood and bone marrow, only ~40% of tissue resident macrophages derived from yolk sac (e.g., those in the liver and the spleen red pulp) were affected (Shi et al., 2018, Methods Mol Biol, 1784:263-275). While the inefficacy of the LysM-cre strain in depleting tissue resident macrophages has precluded using the Mye-Tet3 ko mice, potential effects of Bobcat339 in steatosis, inflammation, and fibrosis were assessed using a high fat high sugar diet-induced murine model of NASH (Ishimoto et al., 2013, Hepatology, 58:1632-1643; Kroh et al., 2020, Gastroenterol Res Pract, 7347068; Baiges-Gaya et al., 2021, J Nutr Biochem, 89:108559). As shown schematically in FIG. 29A, mice were placed on a standard chow diet (CD) (control group) or a western diet with 10% sucrose in drinking water (WD) for 8 weeks to induce an early NASH phenotype (Kroh et al., 2020, Gastroenterol Res Pract, 7347068). Then, these mice were therapeutically dosed intravenously once a week from week 8 through week 11 with either 2.5 mg/kg Bobcat339 (treatment group) or vehicle (model group) for a total of 13 weeks on diets. Mice were euthanized following a 12 h overnight fasting, and plasma and liver were harvested for analyses.
Then, these mice were therapeutically dosed intravenously once a week from week 8 through week 11 with either 3 mg/kg Bobcat339 (treatment group) or vehicle (model group) for a total of 13 weeks on diets. At the end of the study, mice were euthanized following a 12 h overnight fasting, and plasma and liver were harvested for analyses.
Male C57BL/6J mice of 6-weeks old were randomly divided into three groups, with each containing 5 animals. The control group were fed a standard chow diet (CD). The model group and the treatment group were fed a western diet (WD) (40 kcal % fat, 20 kcal % fructose, and 2 kcal % cholesterol, Research Diets, D09100301) supplemented with 10% sucrose in drinking water provided ad libitum. In the treatment group, Bobcat339 administration was initiated following 8 weeks of WD by tail vein injection at 2.5 mg/kg body weight once a week for 4 weeks. The control group and the model group received vehicle (DMSO) tail vein injections. […] After a total of 13 weeks on diets, mice were sacrificed following a 12 h overnight fasting, and plasma and liver were harvested for analyses.
GTT were performed following 16 h overnight fasting. Each animal received an i.p. injection of 2 g/kg of glucose (Sigma-Aldrich, G5767) in sterile saline. Blood glucose concentrations were measured using Contour next blood glucose meter (Ascensia Diabetes Care) via tail vein bleeding at the indicated time points after injection.
These were assessed using Triglyceride Content Assay Kit (Solarbio, BC0625) and Hydroxyproline Assay Kit (Sigma-Aldrich, MAK008-1KT), respectively.
Mouse liver samples were collected and fixed at 4 °C with 4% of phosphate buffered paraformaldehyde for 24 h. Fixed tissue specimens were embedded in paraffin and cut into […] tissue sections for histopathological analysis. Tissue sections were stained with Hematoxylin-Eosin according to standard protocols. For Sirius Red/Fast Green staining, slides were deparaffinized by heating at 65 °C for 60 min, followed by xylene wash 3 times 5 min each. The slides were then rehydrated in 100%, 90%, 80% and 70% ethanol for 5 min each, followed by ddH2O wash 2 times 5 min each. Then they were incubated in 0.04% Fast Green (Sigma-Aldrich, F7258) in saturated [COMPOUND LEFT OUT] for 15 min, washed with distilled water and then incubated in 0.1% Fast Green and 0.08% Sirius Red (Sigma-Aldrich, 365546) in saturated [COMPOUND LEFT OUT] for 30 min. […]

This note sets out measurements from patent US20260355199A1, “COMPOSITIONS AND METHODS FOR TREATING OR PREVENTING NONALCOHOLIC STEATOHEPATITIS (NASH), ANOREXIA, DEPRESSION, ENDOMETRIOSIS, AND OTHER DISEASES OR DISORDERS” (priority 2022, published 2026).

Each structure is given as a SMILES string.

In the case of `Nc1nc(=O)n(-c2cccc(-c3ccccc3)c2)cc1Cl` [Bobcat339, 4-Amino-1-[1,1′-biphenyl]-3-yl-5-chloro-2(1H)-pyrimidinone], under “2.5 mg/kg i.v. once a week”, the NAS score result is on record as “reduced NAS scores”; the “TET3-expressing macrophages in liver” value is “depleted after Bobcat339 treatment”; the fibrosis stage result was “a significant reduction in both the fibrosis stage and the hydroxyproline content”; the “histological severity of steatosis and fibrosis” value is “significantly reduced the severity of both steatosis and fibrosis”. In addition, for the setting “2.5 mg/kg i.v. once a week”, the liver hydroxyproline content result was “a significant reduction in both the fibrosis stage and the hydroxyproline content”; the liver triglycerides result is listed as “normalized liver triglycerides”; the liver-to-body weight ratio result is given as “decreased liver-to-body weight ratio”; the fasting glucose entry is “a significant improvement”. Further, where the note is “2.5 mg/kg i.v. once a week”, the glucose tolerance entry is “a significant improvement” and the “plasma AST” value is given as “normalized this marker”. Further, where the note is “3 mg/kg i.v. once a week”, the “IL-1b and IL-6 in CD163+ macrophage-enriched areas of liver” value is “reduced the expression of IL-1b and IL-6”; the NAS score entry is “reduced NAS scores”; the “TET3-overexpressing CD163+ macrophages in liver” value was “significantly reduced after Bobcat339 treatment”; the fibrosis stage result was “a significant reduction in both the fibrosis stage and hydroxyproline content”. Also, where the note is “3 mg/kg i.v. once a week”, the “histological severity of steatosis and fibrosis” value is “significantly reduced the severity of both steatosis and fibrosis”; the hydroxyproline content entry is “a significant reduction in both the fibrosis stage and hydroxyproline content”; the liver triglycerides entry is reported as “normalized liver triglycerides”; the liver-to-body weight ratio entry is listed as “decreased liver-to-body weight ratio”. For the setting “3 mg/kg i.v. once a week”, the fasting glucose entry is “a significant improvement”, the glucose tolerance result is given as “a significant improvement” and the “plasma AST” value is recorded as “normalized this marker”.
